Experimental data from US10377717B2, “Farnesoid X receptor agonists and uses thereof” (Metacrine, Inc., priority 2015, dated 2019).

Target: hFXR (Homo sapiens (Human), UniProt Q96RI1)
Assay: In Vitro FXR Assay (TK), luciferase reporter in transfected CV-1 cells
Type: cell-based
Conditions: TK-ECRE-luc reporter, hFXR/hRXR, 18 hrs, maximum efficacy <25% of Fexaramine control classified as '+'
Method in brief: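 CV-1 cells transiently co-transfected with hFXR, hRXR, TK-ECRE-luc and pCMX-YFP plasmids in charcoal-stripped serum medium. Serially diluted compounds added, cells incubated 18 h at 37° C, then lysed and luminescence read.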

hFXR, sequence (Q96RI1 whole entry): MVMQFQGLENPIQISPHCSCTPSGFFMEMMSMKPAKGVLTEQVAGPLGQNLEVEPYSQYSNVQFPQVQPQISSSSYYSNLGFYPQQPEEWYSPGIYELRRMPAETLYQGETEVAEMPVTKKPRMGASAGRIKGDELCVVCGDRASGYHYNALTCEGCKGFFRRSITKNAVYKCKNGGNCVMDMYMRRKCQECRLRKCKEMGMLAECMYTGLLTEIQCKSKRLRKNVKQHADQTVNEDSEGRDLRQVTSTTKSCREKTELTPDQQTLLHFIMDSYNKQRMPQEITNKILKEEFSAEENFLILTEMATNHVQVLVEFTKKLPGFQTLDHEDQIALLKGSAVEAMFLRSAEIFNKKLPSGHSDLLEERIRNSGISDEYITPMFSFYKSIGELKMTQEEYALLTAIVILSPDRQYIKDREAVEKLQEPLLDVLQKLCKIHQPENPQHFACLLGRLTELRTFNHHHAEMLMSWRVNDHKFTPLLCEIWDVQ
hFXR, sequence (P19793 whole entry partner): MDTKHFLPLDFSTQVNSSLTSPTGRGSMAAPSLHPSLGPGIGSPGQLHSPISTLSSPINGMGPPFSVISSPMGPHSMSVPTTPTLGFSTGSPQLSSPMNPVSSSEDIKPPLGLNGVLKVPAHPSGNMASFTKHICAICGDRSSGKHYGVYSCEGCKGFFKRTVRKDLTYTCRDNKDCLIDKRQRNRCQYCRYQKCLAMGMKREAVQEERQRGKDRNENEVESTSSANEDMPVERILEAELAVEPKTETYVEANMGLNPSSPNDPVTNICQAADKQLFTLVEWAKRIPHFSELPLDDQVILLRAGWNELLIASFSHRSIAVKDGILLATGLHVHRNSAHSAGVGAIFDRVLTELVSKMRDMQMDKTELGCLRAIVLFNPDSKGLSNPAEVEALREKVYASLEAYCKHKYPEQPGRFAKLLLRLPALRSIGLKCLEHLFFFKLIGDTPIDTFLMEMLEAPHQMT

SMILES | EC50 [nM]
COC(=O)c1ccc2c(N(Cc3ccc(-c4ccc(OC)c(C)c4)cc3)C(=O)Cc3ccccc3)nccc2c1 [Compound 75, Methyl 1-(N-((4′-methoxy-3′-methyl-[1,1′-biphenyl]-4-yl)methyl)-2-phenylacetamido)isoquinoline-6-carboxylate] | ≥ 10000
COC(=O)c1ccc2c(N(Cc3ccc(-c4ccc(OC)c(C)c4)cc3)C(=O)CCC(C)(C)C)nccc2c1 [Compound 76, Methyl 1-(N-((4′-methoxy-3′-methyl-[1,1′-biphenyl]-4-yl)methyl)-4,4-dimethylpentanamido)isoquinoline-6-carboxylate] | ≤ 1000
COC(=O)c1ccc2c(N(Cc3ccc(-c4ccc(OC)c(C)c4)cc3)C(=O)CCc3ccccc3)nccc2c1 [Compound 77, Methyl 1-(N-((4′-methoxy-3′-methyl-[1,1′-biphenyl]-4-yl)methyl)-3-phenylpropanamido)isoquinoline-6-carboxylate] | 1000 to 10000
COC(=O)c1ccc2c(N(Cc3ccc(-c4ccc(OC)c(C)c4)cc3)C(=O)CCCOCc3ccccc3)nccc2c1 [Compound 78, Methyl 1-(4-(benzyloxy)-N-((4′-methoxy-3′-methyl-[1,1′-biphenyl]-4-yl)methyl)butanamido)isoquinoline-6-carboxylate] | ≥ 10000
COC(=O)c1ccc2c(N(Cc3ccc(-c4ccc(OC)c(C)c4)cc3)C(=O)CC3CCC3)nccc2c1 [Compound 79, Methyl 1-(2-cyclobutyl-N-((4′-methoxy-3′-methyl-[1,1′-biphenyl]-4-yl)methyl)acetamido)isoquinoline-6-carboxylate] | ≤ 1000
COC(=O)c1ccc2c(N(Cc3ccc(-c4ccc(OC)c(C)c4)cc3)C(=O)CC3CC3)nccc2c1 [Compound 80, Methyl 1-(2-cyclopropyl-N-((4′-methoxy-3′-methyl-[1,1′-biphenyl]-4-yl)methyl)acetamido)isoquinoline-6-carboxylate] | ≤ 1000
CCCCC(=O)N(Cc1ccc(-c2ccc(OC)c(C)c2)cc1)c1nccc2cc(C(=O)OC)ccc12 [Compound 81, Methyl 1-(N-((4′-methoxy-3′-methyl-[1,1′-biphenyl]-4-yl)methyl)pentanamido) isoquinoline-6-carboxylate] | ≤ 1000
CCCC(=O)N(Cc1ccc(-c2ccc(OC)c(C)c2)cc1)c1nccc2cc(C(=O)OC)ccc12 [Compound 82, Methyl 1-(N-((4′-methoxy-3′-methyl-[1,1′-biphenyl]-4-yl)methyl)butyramido)isoquinoline-6-carboxylate] | ≤ 1000
COC(=O)c1ccc2c(N(Cc3ccc(-c4ccc(OC)c(C)c4)cc3)C(=O)CC3COC3)nccc2c1 [Compound 83, Methyl 1-(N-((4′-methoxy-3′-methyl-[1,1′-biphenyl]-4-yl)methyl)-2-(oxetan-3-yl)acetamido)isoquinoline-6-carboxylate] | 1000 to 10000
COC(=O)c1ccc2c(N(Cc3ccc(-c4ccc(OC)c(C)c4)cc3)C(=O)CCO)nccc2c1 [Compound 84, Methyl 1-(3-hydroxy-N-((4′-methoxy-3′-methyl-[1,1′-biphenyl]-4-yl)methyl)propanamido) isoquinoline-6-carboxylate] | ≥ 10000
COC(=O)c1ccc2c(N(Cc3ccc(-c4ccc(OC)c(C)c4)cc3)C(=O)CCCO)nccc2c1 [Compound 85, Methyl 1-(4-hydroxy-N-((4′-methoxy-3′-methyl-[1,1′-biphenyl]-4-yl)methyl)butanamido) isoquinoline-6-carboxylate] | ≥ 10000
COC(=O)c1ccc2c(N(Cc3ccc(-c4ccc(OC)c(C)c4)cc3)C(=O)CCCCO)nccc2c1 [Compound 86, Methyl 1-(5-hydroxy-N-((4′-methoxy-3′-methyl-[1,1-biphenyl]-4-yl)methyl)pentanamido) isoquinoline-6-carboxylate] | ≥ 10000
COc1ccc([C@H]2CC[C@H](CN(C(=O)CC(C)(C)C)c3nccc4cc(C(=O)OC(C)C)ccc34)CC2)cc1C [Compound 87, Isopropyl 1-(N-((trans-4-(4-methoxy-3-methylphenyl)cyclohexyl)methyl)-3,3-dimethylbutanamido)isoquinoline-6-carboxylate] | ≤ 1000
CCC(C)(C)CC(=O)N(C[C@H]1CC[C@H](c2ccc(OC)c(C)c2)CC1)c1nccc2cc(C(=O)OC(C)C)ccc12 [Compound 88, Isopropyl 1-(N-((trans-4-(4-methoxy-3-methylphenyl)cyclohexyl)methyl)-3,3-dimethylpentanamido)isoquinoline-6-carboxylate] | ≤ 1000
COC(=O)c1ccc2c(N(C[C@H]3CC[C@H](c4ccccc4C)CC3)C(=O)CC(C)(C)C)nccc2c1 [Compound 89, Methyl 1-(3,3-dimethyl-N-((trans-4-(o-tolyl)cyclohexyl)methyl)butanamido)isoquinoline-6-carboxylate] | 1000 to 10000
COC(=O)c1ccc2c(N(C[C@H]3CC[C@H](c4cccc(C)c4)CC3)C(=O)CC(C)(C)C)nccc2c1 [Compound 90, Methyl 1-(3,3-dimethyl-N-((trans-4-(m-tolyl)cyclohexyl)methyl)butanamido)isoquinoline-6-carboxylate] | ≤ 1000
COC(=O)c1ccc2c(N(C[C@H]3CC[C@H](c4ccccc4OC)CC3)C(=O)CC(C)(C)C)nccc2c1 [Compound 92, Methyl 1-(N-((trans-4-(2-methoxyphenyl)cyclohexyl)methyl)-3,3-dimethylbutanamido)isoquinoline-6-carboxylate] | ≥ 10000
COC(=O)c1ccc2c(N(C[C@H]3CC[C@H](c4ccc(OC)cc4)CC3)C(=O)CC(C)(C)C)nccc2c1 [Compound 94, Methyl 1-(N-((trans-4-(4-methoxyphenyl)cyclohexyl)methyl)-3,3-dimethylbutanamido)isoquinoline-6-carboxylate] | ≤ 1000
COC(=O)c1ccc2c(N(C[C@H]3CC[C@H](c4ccc(Cl)cc4)CC3)C(=O)CC(C)(C)C)nccc2c1 [Compound 95, Methyl 1-(N-((trans-4-(4-chlorophenyl)cyclohexyl)methyl)-3,3-dimethylbutanamido)isoquinoline-6-carboxylate] | 1000 to 10000
COC(=O)c1ccc2c(N(C[C@H]3CC[C@H](c4ccc(OC)c(C)c4)CC3)C(=O)CC(C)(C)C)nccc2c1 [Compound 96, Methyl 1-(N-((trans-4-(4-methoxy-3-methylphenyl)cyclohexyl)methyl)-3,3-dimethylbutanamido)isoquinoline-6-carboxylate] | ≤ 1000
COC(=O)c1ccc2c(N(CC3CCN(c4ccc(OC)c(C)c4)CC3)C(=O)CC(C)(C)C)nccc2c1 [Compound 98, Methyl 1-(N-((1-(4-methoxy-3-methylphenyl)piperidin-4-yl)methyl)-3,3-dimethylbutanamido)isoquinoline-6-carboxylate] | 1000 to 10000
COC(=O)c1ccc2c(N(C[C@H]3CC[C@H](c4ccc(OC)c(C)c4)CC3)C(=O)[C@H]3CC[C@H](O)CC3)nccc2c1 [Compound 99, Methyl 1-(trans-4-hydroxy-N-((trans-4-(4-methoxy-3-methylphenyl)cyclohexyl)methyl)cyclohexanecarboxamido) isoquinoline-6-carboxylate] | ≤ 1000
COc1ccc([C@H]2CC[C@H](CN(C(=O)CC(C)(C)C)c3nccc4cc(C(=O)O)ccc34)CC2)cc1C [Compound 100, 1-(N-((trans-4-(4-Methoxy-3-methylphenyl)cyclohexyl)methyl)-3,3-dimethylbutanamido)isoquinoline-6-carboxylic Acid] | 1000 to 10000
COc1ccc(-c2ccc(CN(C(=O)CC(C)(C)C)c3nccc4cc(C(=O)O)ccc34)cc2)cc1C [Compound 101, 1-(N-((4′-methoxy-3′-methyl-[1,1′-biphenyl]-4-yl)methyl)-3,3-dimethylbutanamido) isoquinoline-6-carboxylic acid] | ≥ 10000
COC(=O)/C=C/c1ccc2c(N(Cc3ccc(-c4ccc(OC)c(C)c4)cc3)C(=O)CC(C)(C)C)nccc2c1 [Compound 102, (E)-Methyl 3-(1-(N-((4′-methoxy-3′-methyl-[1,1′-biphenyl]-4-yl)methyl)-3,3-dimethylbutanamido)isoquinolin-6-yl)acrylate] | 1000 to 10000
COc1ccc(-c2ccc(CN(C(=O)CC(C)(C)C)c3nccc4cc(/C=C/C(=O)O)ccc34)cc2)cc1C [Compound 103, (E)-3-(1-(N-((4′-Methoxy-3′-methyl-[1,1′-biphenyl]-4-yl)methyl)-3,3-dimethylbutanamido)isoquinolin-6-yl)acrylic Acid] | 1000 to 10000
COc1ccc(-c2ccc(CN(C(=O)CC(C)(C)C)c3nccc4cc(CCC(=O)O)ccc34)cc2)cc1C [Compound 104, 3-(1-(N-((4′-Methoxy-3′-methyl-[1,1′-biphenyl]-4-yl)methyl)-3,3-dimethylbutanamido)isoquinolin-6-yl)propanoic Acid] | 1000 to 10000
